# Assay results: patent US11364220B2, “Compounds and methods for inhibiting CPY26 enzymes” (Queen's University at Kingston, priority 2016, dated 2022)
# Like-named read-outs stand apart in the source and are kept apart here.
# Legend:
# CYP26A1 = CYP26A1 (Homo sapiens (Human), UniProt O43174); assay: Cell-based inhibitor assay, [H]-RA metabolism in CYP26A1 stably transfected HeLa cells; settings: for IC50: CYP26A1 transfected HeLa cells, 3 hours at 37° C., inhibition of all trans-RA metabolism, read-out: IC50 26A1; for inhibition of CYP26A1-mediated RA metabolism compared with ketoconazole (in words): see IC50 values in Table 2
# Chain of CYP26A1 (O43174 whole entry, species assumed): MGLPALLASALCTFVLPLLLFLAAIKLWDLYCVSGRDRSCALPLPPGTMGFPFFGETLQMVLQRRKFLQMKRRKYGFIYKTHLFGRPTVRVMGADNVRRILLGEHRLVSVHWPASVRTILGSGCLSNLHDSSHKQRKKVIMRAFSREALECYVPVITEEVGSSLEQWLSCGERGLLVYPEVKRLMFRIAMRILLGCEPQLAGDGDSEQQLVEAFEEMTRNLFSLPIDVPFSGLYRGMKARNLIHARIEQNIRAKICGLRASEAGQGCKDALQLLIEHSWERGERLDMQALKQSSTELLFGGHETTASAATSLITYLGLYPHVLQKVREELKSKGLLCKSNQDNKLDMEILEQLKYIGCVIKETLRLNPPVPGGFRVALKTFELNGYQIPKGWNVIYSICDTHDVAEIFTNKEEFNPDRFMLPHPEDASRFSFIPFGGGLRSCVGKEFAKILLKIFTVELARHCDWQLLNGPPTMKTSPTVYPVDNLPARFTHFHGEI
# Experimental: (§1) CYP26A1 or CYP26B1 stably transfected HeLa cells were maintained in Minimum Essential Medium (MEM) containing 10% fetal bovine serum (FBS) and 100 μg/mL hygromycin. Exponentially growing cells were harvested by incubation in trypsin. Cells were then collected and re-plated in 48-well culture plates at 5×10^5 cells in 0.2 mL of culture medium containing 0.05 μCi [H]-RA in the presence or absence of increasing concentrations of a test compound. The test compounds were diluted in dimethyl sulfoxide (DMSO) and then added in duplicate to wells at 0.01, 0.1, 1, 10 and 100 μM final concentration. […] Cells were incubated for 3 hours at 37° C. Retinoids were then extracted using the procedure of Bligh, et al., (1959), Canadian Journal of Biochemistry 37, 911-917, which was modified by using dichloromethane instead of chloroform. Each sample's water soluble radioactivity level was quantified using a β-scintillation counter (using Ecolume scintillation fluid, available from MP Biomedicals of Solon, Ohio, USA).
# CYP26B1 = CYP26B1 (Homo sapiens (Human), UniProt Q9NR63); assay: Cell-based inhibitor assay, [H]-RA metabolism in CYP26B1 stably transfected HeLa cells; settings: for IC50: read-out: IC50 26B1
# Chain of CYP26B1 (Q9NR63 whole entry, species assumed): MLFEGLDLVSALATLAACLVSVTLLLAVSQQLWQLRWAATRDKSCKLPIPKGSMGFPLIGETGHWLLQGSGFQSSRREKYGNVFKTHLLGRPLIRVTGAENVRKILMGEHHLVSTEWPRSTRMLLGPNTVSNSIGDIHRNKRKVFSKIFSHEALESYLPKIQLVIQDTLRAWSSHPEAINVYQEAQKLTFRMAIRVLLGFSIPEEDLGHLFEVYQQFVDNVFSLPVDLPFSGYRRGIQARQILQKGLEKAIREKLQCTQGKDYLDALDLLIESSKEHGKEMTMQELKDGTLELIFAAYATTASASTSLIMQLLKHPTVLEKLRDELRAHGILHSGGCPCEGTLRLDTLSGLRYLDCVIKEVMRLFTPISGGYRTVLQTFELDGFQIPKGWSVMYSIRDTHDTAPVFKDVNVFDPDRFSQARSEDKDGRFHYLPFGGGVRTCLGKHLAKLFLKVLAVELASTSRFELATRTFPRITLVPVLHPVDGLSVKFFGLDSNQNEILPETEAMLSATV
# Experimental: as §1
# [1] = tested on: RA sensitive reporter construct pCYP26A1-luc in MCF-7 cells; assay: Retinoid activity assay, RA sensitive pCYP26A1-luc reporter in MCF-7 cells; assay type: cell-based; settings: 24 hours, firefly relative to Renilla luciferase
# Excerpt: This retinoid activity assay measures the ability of test compounds to induce expression of a transiently transfected RA sensitive reporter construct. In this assay, MCF-7 cells are transfected with a construct comprising an upstream promoter of the CYP26A1 gene containing 2 RA response elements driving expression of firefly luciferase (pCYP26A1-luc). Since CYP26A1 is highly inducible by RA in these cells, this construct serves as a sensitive reporter of retinoid-like transcriptional activity.
# MCF-7 cells were maintained in RPMI-1640 medium containing 10% FBS. Exponentially growing cells were harvested by incubation in trypsin. Cells were then collected and plated in 24-well plates at 50,000 cells/well. Once cells reached 80-90% confluence (e.g., the next day), cells were transfected with two plasmids. The first plasmid was CYP26A1-luc construct (375 ng). The second plasmid was a control plasmid comprising the Renilla luciferase gene driven by constitutive thymidine kinase promoter (pRL-tk) (25 ng). Transfection was performed using FuGene 6 transfection reagent (Promega) with a 1:3 ratio of DNA:FuGene. 24 hours after transfection, cells were treated with test compounds diluted in DMSO in triplicate at 0.1, 1 and 10 μM final concentrations. As a positive control for reporter activation, cells were also treated with RA diluted in DMSO at the same concentrations listed above. DMSO treatment alone served as a negative control. After 24 hours of treatment, cells were harvested in passive lysis buffer (Promega) and luciferase activity in cell lysates were read using a luminometer. Data are expressed as the activity of firefly luciferase relative to Renilla luciferase (see Table 3). For CYP26A1 inhibitor compounds, no activation of the reporter was detected, while the related retinoid-like compound induces luciferase expression.
# [2] = CYP26B1 transfected HeLa cells, 3 hours at 37° C., inhibition of all trans-RA metabolism
IC50 (CYP26A1),IC50 (CYP26B1; [2]),IC50 (CYP26B1),SMILES,Luciferase Activity RLU Avg ([1]; 0.1 μM),Luciferase Activity RLU Avg ([1]; 1 μM),Luciferase Activity RLU Avg ([1]; 10 μM),inhibitory activity towards CYP26A1 (in words) (CYP26A1),inhibition of CYP26A1-mediated RA metabolism compared with ketoconazole (in words) (CYP26A1),inhibition of CYP26B1 enzyme (in words) (CYP26B1)
5.66 µM,8.81 µM,–,CC1(C)CCC(C)(C)c2cc(C(=O)Nc3ccc(CC(=O)O)cc3)ccc21 [Cmpd 01],0.0041 RLU,0.0053 RLU,0.0077 RLU,–,–,–
0.83 µM,2.06 µM,–,Cc1cc2c(cc1C(=O)Nc1ccc(CC(=O)O)cc1)C(C)(C)CCC2(C)C [Cmpd 02],0.004 RLU,0.0042 RLU,0.0066 RLU,selective inhibitory activity towards CYP26A1,comparable to or better than ketoconazole,None of the above compounds inhibited the CYP26B1 enzyme
> 100 µM,65.4 µM,–,CN(C(=O)c1ccc2c(c1)C(C)(C)CCC2(C)C)c1ccc(CC(=O)O)cc1 [Cmpd 03],0.0041 RLU,0.0039 RLU,0.005 RLU,–,–,–
14 µM,–,–,C=C(Cc1ccc(NS(=O)(=O)c2ccc3c(c2)C(C)(C)CCC3(C)C)cc1)OC [Cmpd 04A],–,–,–,–,–,–
1.14 µM,18.9 µM,–,CC1(C)CCC(C)(C)c2cc(S(=O)(=O)Nc3ccc(CC(=O)O)cc3)ccc21 [Cmpd 04],0.0046 RLU,0.0035 RLU,–,selective inhibitory activity towards CYP26A1,comparable to or better than ketoconazole,None of the above compounds inhibited the CYP26B1 enzyme
39.7 µM,11.5 µM,–,CC1(C)CCOc2ccc(C(=O)Nc3ccc(CC(=O)O)cc3)cc21 [Cmpd 05],–,–,–,–,–,–
1.29 µM,42.3 µM,–,CC(C)c1cc2c(cc1C(=O)Nc1ccc(CC(=O)O)cc1)C(C)(C)CCC2(C)C [Cmpd 06],0.0021 RLU,0.002 RLU,0.0018 RLU,selective inhibitory activity towards CYP26A1,comparable to or better than ketoconazole,None of the above compounds inhibited the CYP26B1 enzyme
3.17 µM,19.2 µM,–,CC1(C)CCC(C)(C)c2cc(NC(=O)c3ccc(CC(=O)O)cc3)ccc21 [Cmpd 08],0.0025 RLU,0.0019 RLU,0.0028 RLU,–,–,–
2.2 µM,14.2 µM,–,CC1(C)CCC(C)(C)c2cc(S(=O)(=O)Nc3ccc(CC(=O)O)c(F)c3)ccc21 [Cmpd 09],0.0018 RLU,0.0017 RLU,0.0012 RLU,–,–,–
8.23 µM,0.55 µM,–,Cc1cc2c(c(C)c1C(=O)Nc1ccc(CC(=O)O)cc1)C(C)(C)CCC2(C)C [Cmpd 10],0.073 RLU,0.076 RLU,0.084 RLU,–,–,–
20 µM,> 1000 µM,–,CC(C)c1cc2c(cc1S(=O)(=O)Nc1ccc(CC(=O)O)cc1)C(C)(C)CCC2(C)C [Cmpd 11],0.064 RLU,0.062 RLU,0.044 RLU,–,–,–

# The next lines start with the compound.
SMILES,IC50 (CYP26A1),IC50 (CYP26B1; [2]),IC50 (CYP26B1),Luciferase Activity RLU Avg ([1]; 0.1 μM),Luciferase Activity RLU Avg ([1]; 1 μM),Luciferase Activity RLU Avg ([1]; 10 μM),inhibitory activity towards CYP26A1 (in words) (CYP26A1),inhibition of CYP26A1-mediated RA metabolism compared with ketoconazole (in words) (CYP26A1),inhibition of CYP26B1 enzyme (in words) (CYP26B1)
C=C(Cc1ccc(NS(=O)(=O)c2cc3c(cc2Br)C(C)(C)CCC3(C)C)cc1)OC [Cmpd 04B],8.24 µM,–,–,–,–,–,–,–,–
Cc1cc2c(cc1S(=O)(=O)Nc1ccc(CC(=O)O)cc1)C(C)(C)CCC2(C)C [Cmpd 07],–,–,–,0.0016 RLU,0.0019 RLU,0.0011 RLU,–,–,–
C=C(Cc1ccc(NS(=O)(=O)c2ccc3c(c2)C(C)(C)CCC3(C)C)cc1F)OC [Cmpd 09A],80.5 µM,–,–,–,–,–,–,–,–
Cc1cc2c(cc1S(=O)(=O)Nc1ccc(C3(C(=O)O)CC3)cc1)C(C)(C)CCC2(C)C [Cmpd 13],6.2 µM,> 100 µM,–,0.113 RLU,0.07 RLU,0.04 RLU,–,–,–
Cc1cc2c(cc1S(=O)(=O)Nc1ccc(C(=O)O)cc1)C(C)(C)CCC2(C)C [Cmpd 14],28.4 µM,> 100 µM,–,0.111 RLU,0.125 RLU,0.134 RLU,–,–,–
Cc1cc2c(cc1C(=O)Nc1ccc(C(C)(C)C(=O)O)cc1)C(C)(C)CCC2(C)C [Cmpd 16],1.77 µM,11.9 µM,–,0.166 RLU,0.183 RLU,0.155 RLU,selective inhibitory activity towards CYP26A1,comparable to or better than ketoconazole,None of the above compounds inhibited the CYP26B1 enzyme
CCC(CC)(C(=O)O)c1ccc(NS(=O)(=O)c2ccc3c(c2)C(C)(C)CCC3(C)C)cc1 [Cmpd 17],38.7 µM,0.29 µM,–,0.023 RLU,0.026 RLU,0.038 RLU,–,–,–
CCC(CC)(C(=O)O)c1ccc(NS(=O)(=O)c2cc3c(cc2C)C(C)(C)CCC3(C)C)cc1 [Cmpd 18],> 1000 µM,9.07 µM,–,0.0683 RLU,0.0597 RLU,0.05 RLU,–,–,–
Cc1cc2c(cc1S(=O)(=O)Nc1ccc(C(C(=O)O)C(C)C)cc1)C(C)(C)CCC2(C)C (stereo not drawn) [Cmpd 19],0.741 µM,> 100 µM,–,0.0244 RLU,0.019 RLU,0.0076 RLU,selective inhibitory activity towards CYP26A1,comparable to or better than ketoconazole,None of the above compounds inhibited the CYP26B1 enzyme
Cc1cc(S(=O)(=O)Nc2ccc(CC(=O)O)cc2)cc2c1OC(C)(C)CC2(C)C [Cmpd 21],1.9 µM,–,21.8 µM,–,–,–,selective inhibitory activity towards CYP26A1,comparable to or better than ketoconazole,None of the above compounds inhibited the CYP26B1 enzyme
